Molecules are shown by their SMILES. Read-outs that look alike come from different tables or passages of the source.

This test addresses Active Human ERK2 (hERK2) (Homo sapiens (Human), UniProt P28482). Kind of test: Active Human ERK2 (hERK2) Activity Assay (IMAP-FP). Format: biochemical. The method, boiled down:
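Reaction contains 0.5 nM activated hERK2, 900 nM unlabeled plus 80 nM labeled peptide and 30 μM ATP, run 60 min. Quenched with IMAP binding beads in buffer with 24 mM NaCl; fluorescence polarization read after 60 min binding equilibration.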

Setting [1] is: phosphorylated active hERK2, 30 μM ATP, average, read-out: ERK 2 Human average IC50.
Setting [2] is: read-out: AERK2 IC50 (Active human ERK2 Activity Assay).

Sequence of Active Human ERK2 (hERK2) (P28482 whole entry): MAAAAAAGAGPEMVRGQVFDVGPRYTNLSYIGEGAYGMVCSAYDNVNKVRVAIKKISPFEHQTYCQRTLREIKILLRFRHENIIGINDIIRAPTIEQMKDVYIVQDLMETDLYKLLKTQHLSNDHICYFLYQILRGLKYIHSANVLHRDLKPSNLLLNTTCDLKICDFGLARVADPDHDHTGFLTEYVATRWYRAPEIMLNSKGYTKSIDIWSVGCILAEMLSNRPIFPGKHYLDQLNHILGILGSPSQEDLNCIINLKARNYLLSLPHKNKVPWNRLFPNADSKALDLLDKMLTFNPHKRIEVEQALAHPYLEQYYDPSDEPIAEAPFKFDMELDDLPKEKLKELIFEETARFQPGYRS

The IC50 is the concentration that inhibits the measured activity by half. `Cc1cc(-c2n[nH]c3cc(NC(=O)NC(C)(C)c4ccc(Cl)cc4)ncc23)ccn1` [Example 70, 1-[1-(4-chlorophenyl)-1-methylethyl]-3-[3-(2-methylpyridin-4-yl)-1H-pyrazolo[4,3-c]pyridin-6-yl]urea]: the IC50 under setting [1] was 10.2 nM.

For the compound `Cc1cc(-c2n[nH]c3cc(NC(=O)Nc4ccc(NCCc5ccccc5)nn4)ncc23)ccn1` [Example 55, 1-[3-(2-methylpyridin-4-yl)-1H-pyrazolo[4,3-c]pyridin-6-yl]-3-{6-[(2-phenylethyl)amino]pyridazin-3-yl}urea], under setting [1], the IC50 is 35 nM.

Turning to `Cc1cc(-c2n[nH]c3cc(NC(=O)NCc4cnsn4)ncc23)ccn1` [Example 425], the half-maximal inhibitory concentration (IC50) under setting [1] is 0.323 nM.

As to `COCCNC(=O)c1n[nH]c2cc(NC(=O)N[C@H](C)c3ccccc3)ncc12` [Example 116, N-(2-methoxyethyl)-6-({[(1R)-1-phenylethyl]carbamoyl}amino)-1H-pyrazolo[4,3-c]pyridine-3-carboxamide], the half-maximal inhibitory concentration (IC50) under setting [1] stood at 10.7 nM.

In the case of `C[C@@H](NC(=O)Nc1cc2[nH]nc(-c3cccc(C#N)c3)c2cn1)c1ccccc1` [Example 672], the half-maximal inhibitory concentration (IC50) under setting [1] was found to be 1.55 nM.

Take `COCC(O)CNC(=O)c1n[nH]c2cc(NC(=O)N[C@H](C)c3ccccc3)ncc12` (some centres unmarked) [Example 133]: under setting [1], the 50% inhibitory concentration (IC50) was 11 nM.

As to `Cc1cc(-c2n[nH]c3cc(NC(=O)NCCc4cn[nH]c4)ncc23)ccn1` [Example 394], the half-maximal inhibitory concentration (IC50) under setting [1] is 0.85 nM.

Turning to `Cc1cc(-c2n[nH]c3cc(NC(=O)N[C@@H](C)c4ccc(F)c(F)c4)ncc23)ccn1` [Example 411], under setting [1], the IC50 came to 34.1 nM.

Regarding `Cc1cc(-c2n[nH]c3cc(NC(=O)NC4CCCC(Oc5cccc(F)c5)C4)ncc23)ccn1` (centres unmarked) [Example 648], under setting [1], the 50% inhibitory concentration (IC50) stood at 28.2 nM.

Take `COC[C@H](NC(=O)Nc1cc2[nH]nc(-c3cnn(C)c3)c2cn1)c1ccccc1` [Example 600, 1-[(1R)-2-methoxy-1-phenylethyl]-3-[3-(1-methyl-1H-pyrazol-4-yl)-1H-pyrazolo[4,3-c]pyridin-6-yl]urea]: the IC50 under setting [1] was found to be 31.9 nM.

Regarding `COC[C@@H](NC(=O)Nc1cc2[nH]nc(-c3ccnc(C)c3)c2cn1)c1cc(F)ccn1` [Example 169], the IC50 under setting [1] was 7.33 nM.

On to `COc1ncc(-c2n[nH]c3cc(NC(=O)N[C@H](C)c4ccc(F)cc4)ncc23)cn1` [Example 252], for which the IC50 under setting [1] stood at 0.746 nM.

As for `Cc1cc(-c2n[nH]c3cc(NC(=O)NCc4ccccc4OC(F)F)ncc23)ccn1` [Example 441], the IC50 under setting [1] came to 0.309 nM.

As to `Cc1cc(-c2n[nH]c3cc(NC(=O)NC(C)c4ccccc4OC(F)(F)F)ncc23)ccn1` (centres unmarked) [Example 524], under setting [1], the IC50 came out at 2.39 nM.

With `COC(=O)C1CC1c1n[nH]c2cc(NC(=O)N[C@H](C)c3ccccc3)ncc12` (some centres unmarked) [Example 642], under setting [1], the half-inhibitory concentration (IC50) worked out at 327 nM.

`C[C@@H](NC(=O)Nc1cc2[nH]nc(-c3ccc(F)cc3)c2cn1)c1ccccc1` [Example 30, 1-[3-(4-fluorophenyl)-1H-pyrazolo[4,3-c]pyridin-6-yl]-3-[(1R)-1-phenylethyl]urea]: the IC50 under setting [1] amounted to 0.85 nM and the IC50 under setting [2] lay in the range of 0.2 to 1.7 nM.

`Cn1cc(-c2n[nH]c3cc(NC(=O)NCC4CCC4)ncc23)cn1` [Example 590]: under setting [1], the IC50 was found to be 2.06 nM.

In the case of `Cc1cc(-c2n[nH]c3cc(NC(=O)N[C@H]4CN(C)[C@@H](C(F)F)[C@@H]4c4ccccc4)ncc23)ccn1` [Example 567], under setting [1], the IC50 turned out to be 0.441 nM.

Regarding `Cc1cc(-c2n[nH]c3cc(NC(=O)NCc4cccc(Cl)c4)ncc23)ccn1` [Example 27, 1-(3-chlorobenzyl)-3-[3-(2-methylpyridin-4-yl)-1H-pyrazolo[4,3-c]pyridin-6-yl]urea], the half-inhibitory concentration (IC50) was 0.713 nM under setting [1] and 0.2 to 1.7 nM under setting [2].

With `Cc1cc(-c2n[nH]c3cc(NC(=O)NC4(c5ccccn5)CCC4)ncc23)ccn1` [Example 355], the IC50 under setting [1] worked out at 1.54 nM.

Consider `Cc1cc(-c2n[nH]c3cc(NC(=O)NCc4nc5ccccc5[nH]4)ncc23)ccn1` [Example 408], for which the half-inhibitory concentration (IC50) under setting [1] amounted to 2 nM.

Consider `CCCCNC(=O)Nc1cc2[nH]nc(C3CCC3)c2cn1` [Example 143, 1-butyl-3-(3-cyclobutyl-1H-pyrazolo[4,3-c]pyridin-6-yl)urea], for which, under setting [1], the IC50 was determined as 39.7 nM.

In the case of `C[C@@H](NC(=O)Nc1cc2[nH]nc(C3(C)CC3(F)F)c2cn1)c1ccc(F)cc1` (stereo partly drawn) [Example 159, 1-[3-(2,2-difluoro-1-methylcyclopropyl)-1H-pyrazolo[4,3-c]pyridin-6-yl]-3-[(1R)-1-(4-fluorophenyl)ethyl]urea], the IC50 under setting [1] was determined as 610 nM.

Take `Cc1cc(-c2n[nH]c3cc(NC(=O)NCc4ccsn4)ncc23)ccn1` [Example 476]: the IC50 under setting [1] is 0.587 nM.

On to `Cc1cc(-c2n[nH]c3cc(NC(=O)NCc4c(F)cc(F)cc4F)ncc23)ccn1` [Example 519], for which the concentration for half-maximal inhibition (IC50) under setting [1] was found to be 0.962 nM.

As to `CCOCCNC(=O)Nc1cc2[nH]nc(-c3ccc(F)cc3)c2cn1` [Example 616], the half-inhibitory concentration (IC50) under setting [1] was 0.61 nM.

For the compound `Cc1cc(-c2n[nH]c3cc(NC(=O)NCC4(N(C)C)CCC4)ncc23)ccn1` [Example 193], the IC50 under setting [1] was found to be 125 nM.

`Cc1cc(-c2n[nH]c3cc(NC(=O)NCC(C)c4ccccc4)ncc23)ccn1` (centres unmarked) [Example 584]: the IC50 under setting [1] stood at 0.679 nM.

Consider `Cc1ccc(C(C)NC(=O)Nc2cc3[nH]nc(-c4ccnc(C)c4)c3cn2)nc1` (centres unmarked) [Example 339], for which the IC50 under setting [1] turned out to be 6.08 nM.

On to `CCCNC(=O)Nc1cc2[nH]nc(-c3ccnc(C)c3)c2cn1` [Example 572], for which, under setting [1], the IC50 came out at 1.62 nM.

`O=C(NCCC1CCOC1)Nc1cc2[nH]nc(-c3ccc(F)cc3)c2cn1` (centres unmarked) [Example 219]: the IC50 under setting [1] was 1.68 nM.

Take `COC[C@@H](NC(=O)Nc1cc2[nH]nc(-c3cnc(OC)nc3)c2cn1)c1ccccc1` [Example 314]: the concentration for half-maximal inhibition (IC50) under setting [1] came out at 0.88 nM.

Consider `Cc1cc(-c2n[nH]c3cc(NC(=O)NCC4CNC4)ncc23)ccn1` [Example 586], for which the half-maximal inhibitory concentration (IC50) under setting [1] is 1.3 nM.

Take `Cc1cc(-c2n[nH]c3cc(NC(=O)NC4CC(C)(C)Oc5ccccc54)ncc23)ccn1` (centres unmarked) [Example 271]: the IC50 under setting [1] turned out to be 5.93 nM.

On to `Cc1cc(-c2n[nH]c3cc(NC(=O)N[C@@H]4CCCc5ccncc54)ncc23)ccn1` [Example 263], for which, under setting [1], the half-inhibitory concentration (IC50) is 1.8 nM.

As to `Cc1cc(-c2n[nH]c3cc(NC(=O)N[C@@H](CN)c4ccccc4)ncc23)ccn1` [Example 331], the IC50 under setting [1] was 29.1 nM.

Regarding `Cc1cc(-c2n[nH]c3cc(NC(=O)N[C@@H](C)c4ccncc4)ncc23)ccn1` [Example 235], under setting [1], the half-maximal inhibitory concentration (IC50) was found to be 21.9 nM.

`Cc1cc(-c2n[nH]c3cc(NC(=O)N[C@H](C)c4ccccc4)ncc23)no1` [Example 682]: the IC50 under setting [1] stood at 32.4 nM.

Consider `COc1cncc(-c2n[nH]c3cc(NC(=O)N[C@H](C)c4ccc(F)cc4)ncc23)c1` [Example 253], for which the concentration for half-maximal inhibition (IC50) under setting [1] came out at 3.16 nM.

Regarding `COC[C@@H](NC(=O)Nc1cc2[nH]nc(-c3ccn4ncnc4c3)c2cn1)c1ccc(F)cc1` [Example 300], the half-inhibitory concentration (IC50) under setting [1] was 1.34 nM.

Take `COCCNC(=O)Nc1ncc2c(-c3ccnc(C4CC4)c3)n[nH]c2c1F` [Example 610]: the half-inhibitory concentration (IC50) under setting [1] was found to be 3.12 nM.

For `C[C@@H](NC(=O)Nc1cc2[nH]nc(-c3cnc(O)nc3)c2cn1)c1ccccc1` [Example 290], the 50% inhibitory concentration (IC50) under setting [1] was 0.366 nM.

With `Cc1cc(-c2n[nH]c3cc(NC(=O)NCc4cccc(C)n4)ncc23)ccn1` [Example 315], under setting [1], the IC50 was 1.93 nM.

For the compound `CC(O)c1n[nH]c2cc(NC(=O)N[C@H](C)c3ccccc3)ncc12` (some centres unmarked) [Example 618], the IC50 under setting [1] came out at 22.8 nM.

In the case of `Cc1cc(-c2n[nH]c3cc(NC(=O)NCc4ccccc4Cl)ncc23)ccn1` [Example 439], under setting [1], the half-inhibitory concentration (IC50) came to 1.3 nM.

The record behind these values is patent publication US9023865B2, “Compounds that are ERK inhibitors” (Merck Sharp & Dohme Corp., priority 2011, dated 2015).
